According to PMC12042115 (mLife, 2025):
Read-outs that look alike come from different tables or passages of the source.

Test system: wild‐type BCG cells
Assay type: cell-based, M. bovis BCG

O=C(Oc1ccc(Cl)cc1)c1ccc(N2CCOCC2)c([N+](=O)[O-])c1 [GDI‐5755]
1.2: Mean_Ratio GDI5755_3d: DMSO_3d (Table S6, BCG_1037 Two-component sensor kinase MprB)
1.47 fold: ClpB upregulation (3‐day treated cells)
216 proteins: number of proteins accumulated (upregulated) (Day 2)
29.1%: proteome remaining downregulated into the third day (Day 2 and Day 3)
0.6: Mean_Ratio GDI5755_3d: DMSO_3d (Table S5, BCG_0692c Methoxy mycolic acid synthase 3 mmaA3) | Mean_Ratio GDI5755_3d: DMSO_3d (Table S5, BCG_1896 Alanine and proline-rich secreted protein Apa) | Mean_Ratio GDI5755_3d: DMSO_3d (Table S5, BCG_1962 Probable lipase lipD) | Mean_Ratio GDI5755_3d: DMSO_3d (Table S5, BCG_2886c Possible penicillin-binding lipoprotein) | Mean_Ratio GDI5755_3d: DMSO_3d (Table S5, BCG_3009c 3-isopropylmalate dehydratase large subunit)
> 1.4 fold: EthA upregulation (GDI‐5755‐treated cells)
3.9: Mean_Ratio GDI5755_3d: DMSO_3d (Table S6, BCG_0289c Heat stress-induced ribosome-binding protein A, acr2)
188 proteins: number of proteins accumulated (upregulated) (Day 3)
0.5: Mean_Ratio GDI5755_3d: DMSO_3d (Table S5, BCG_0495c Enoyl-CoA hydratase echA2)
1.4: Mean_Ratio GDI5755_3d: DMSO_3d (Table S6, BCG_0390 Protein GrpE/HSP-70 cofactor) | Mean_Ratio GDI5755_3d: DMSO_3d (Table S6, BCG_0463c Uncharacterized protein) | Mean_Ratio GDI5755_3d: DMSO_3d (Table S6, BCG_0726c Possible conserved membrane protein mmpS5) | Mean_Ratio GDI5755_3d: DMSO_3d (Table S6, BCG_0774 Possible protease IV sppA (Endopeptidase IV)) | Mean_Ratio GDI5755_3d: DMSO_3d (Table S6, BCG_1028c Probable acetyl-/propionyl-coa carboxylase, accD2)
1.56 fold: ClpB upregulation (2‐day treated cells)
1.5: Mean_Ratio GDI5755_3d: DMSO_3d (Table S6, BCG_0130 decarboxylase) | Mean_Ratio GDI5755_3d: DMSO_3d (Table S6, BCG_0389 Chaperone protein DnaK) | Mean_Ratio GDI5755_3d: DMSO_3d (Table S6, BCG_0391 Chaperone protein DnaJ) | Mean_Ratio GDI5755_3d: DMSO_3d (Table S6, BCG_0422c Chaperone protein ClpB)
0.7: Mean_Ratio (GDI5755_3d vs DMSO_3d) (3 d) | Mean_Ratio GDI5755_3d: DMSO_3d (Table S5, BCG_0066 Fatty-acid-coa ligase fadD34) | Mean_Ratio GDI5755_3d: DMSO_3d (Table S5, BCG_0207 MCE-family protein mce1B) | Mean_Ratio GDI5755_3d: DMSO_3d (Table S5, BCG_0209 MCE-family protein mce1D) | Mean_Ratio GDI5755_3d: DMSO_3d (Table S5, BCG_0210 MCE-family lipoprotein lprK) | Mean_Ratio GDI5755_3d: DMSO_3d (Table S5, BCG_0211 MCE-family protein mce1F) | Mean_Ratio GDI5755_3d: DMSO_3d (Table S5, BCG_0442 Probable fatty-acid-CoA ligase fadD30) | Mean_Ratio GDI5755_3d: DMSO_3d (Table S5, BCG_0546c cmaA2) | Mean_Ratio GDI5755_3d: DMSO_3d (Table S5, BCG_0693c Methoxy mycolic acid synthase 2 mmaA2) | Mean_Ratio GDI5755_3d: DMSO_3d (Table S5, BCG_1048 UTP--glucose-1-phosphate uridylyltransferase) | Mean_Ratio GDI5755_3d: DMSO_3d (Table S5, BCG_1203c Probable enoyl-CoA hydratase echA11) | Mean_Ratio GDI5755_3d: DMSO_3d (Table S5, BCG_1579c Mycocerosic acid synthase-like polyketide synthase) | Mean_Ratio GDI5755_3d: DMSO_3d (Table S5, BCG_1619c Possible inv protein) | Mean_Ratio GDI5755_3d: DMSO_3d (Table S5, BCG_1922c Chorismate mutase) | Mean_Ratio GDI5755_3d: DMSO_3d (Table S5, BCG_1923c Mycolyltransferase Ag85B) | Mean_Ratio GDI5755_3d: DMSO_3d (Table S5, BCG_2260 Malonyl CoA-acyl carrier protein transacylase fabD) | Mean_Ratio GDI5755_3d: DMSO_3d (Table S5, BCG_2317 Cutinase) | Mean_Ratio GDI5755_3d: DMSO_3d (Table S5, BCG_2550 ERCC4 domain-containing protein) | Mean_Ratio GDI5755_3d: DMSO_3d (Table S5, BCG_2977 Methyltransferase FkbM domain-containing protein) | Mean_Ratio GDI5755_3d: DMSO_3d (Table S5, BCG_3731c Possible chalcone synthase pks11) | Mean_Ratio GDI5755_3d: DMSO_3d (Table S5, BCG_3772 Lipid II isoglutaminyl synthase subunit MurT)
0.8: Mean_Ratio GDI5755_3d: DMSO_3d (Table S5, BCG_0001 Chromosomal replication initiator protein DnaA) | Mean_Ratio GDI5755_3d: DMSO_3d (Table S5, BCG_0101c Serine hydroxy methyltransferase) | Mean_Ratio GDI5755_3d: DMSO_3d (Table S5, BCG_0208 MCE-family protein mce1C) | Mean_Ratio GDI5755_3d: DMSO_3d (Table S5, BCG_0547c UPF0336 protein) | Mean_Ratio GDI5755_3d: DMSO_3d (Table S5, BCG_0591c Possible oxidoreductase) | Mean_Ratio GDI5755_3d: DMSO_3d (Table S5, BCG_1311c Uncharacterized protein) | Mean_Ratio GDI5755_3d: DMSO_3d (Table S5, BCG_1534 Macrolide-transport ATP-binding protein ABC transporter) | Mean_Ratio GDI5755_3d: DMSO_3d (Table S5, BCG_1699 Possible chalcone synthase pks10) | Mean_Ratio GDI5755_3d: DMSO_3d (Table S5, BCG_2254 ER-bound oxygenase mpaB) | Mean_Ratio GDI5755_3d: DMSO_3d (Table S5, BCG_2310 Probable aminotransferase) | Mean_Ratio GDI5755_3d: DMSO_3d (Table S5, BCG_2546c Putative peptidoglycan hydrolase) | Mean_Ratio GDI5755_3d: DMSO_3d (Table S5, BCG_3111 alcohol dehydrogenase adhD) | Mean_Ratio GDI5755_3d: DMSO_3d (Table S5, BCG_3296 LytR family transcriptional regulator) | Mean_Ratio GDI5755_3d: DMSO_3d (Table S5, BCG_3375 Possible acid phosphatase) | Mean_Ratio GDI5755_3d: DMSO_3d (Table S5, BCG_3658 Probable conserved lipoprotein lpqF) | Mean_Ratio GDI5755_3d: DMSO_3d (Table S5, BCG_3866c Mycolyltransferase Ag85A) | Mean_Ratio GDI5755_3d: DMSO_3d (Table S5, BCG_3882c Trehalose-2-sulfate acyltransferase PapA2)
1.3: Mean_Ratio GDI5755_3d: DMSO_3d (Table S6, BCG_0347c Acetoacetate decarboxylase) | Mean_Ratio GDI5755_3d: DMSO_3d (Table S6, BCG_0909 Cyclase) | Mean_Ratio GDI5755_3d: DMSO_3d (Table S6, BCG_0993 Bifunctional 2-hydroxyhepta-2,4-diene-1,7-dioate isomerase)
~ 37.9%: detected proteome downregulated (2‐day treatment, 2×MIC)
